Assay results taken from paper PMC7822819, “Discovery of a new class of integrin antibodies for fibrosis” (Scientific Reports, 2021).
Where “and” joins values, the source holds several entries; their conditions need not be identical. Identical values can stand only once. Like-named read-outs stand apart in the source and are kept apart here.

Assays:
[1] = Plasma total drug concentration in bleomycin model (LC-MS/MS); type: in vivo, mouse; conditions: 2 h after last dose, Day 19; MK-0429 200 mpk minipump, Nintedanib 60 mpk po qd; mean ± SE
Experimental: Mice at 12 ~ 13 weeks of age were randomized to 5 groups: saline, bleomycin instillation with vehicle (osmotic minipump), bleomycin instillation with MK-0429 treatment, bleomycin instillation with vehicle oral treatment, and bleomycin instillation with Nintedanib treatment. All mice were anaesthetized with isoflurane. Bleomycin was dosed by intra-tracheal (i.t) instillation in a volume of 50 µl, at a dose of 1unit /kg body weight. After instillation, mice were kept in a heads-up position for 2–5 min before putting into cages. MK-0429 (200 mg/kg) was administered by Osmotic pump from day 5 to day 14 and Nintedanib (60 mg/kg) was administered, p.o., q.d., for 14 days. Vehicle was dosed orally at 10 am daily from the day 5 to the end of the studies and dosing volume was 10 mL/kg. For plasma PK analysis, an aliquot of 50 μL plasma was spiked into a 96-well plate, and 200 μL of acetonitrile containing internal standard were added for protein precipitation. The mixture was vortexed, centrifuged at 4000 rpm for 20 min. 50 μL of supernatant were mixed with 200 μl H2O and the final solution were injected for LC–MS/MS analysis. The methods for quantitative analysis were developed on UPLC (Waters) chromatographic system equipped with an API4000 QTrap mass spectrometer (Applied Biosystems, Concord, Ontario, Canada). […]

CHOK1 parental cells = experiment: Cell adhesion assay (Epic) on fibronectin; type: cell-based, hamster; conditions: in words
human αvβ1 [2] = target: T1, human αvβ1 (Homo sapiens, UniProt P05556+P06756); experiment: Latent TGFβ activation assay (TMLC / CHOK1-integrin co-culture, PAI-1 luciferase); type: cell-based; set-up: expressed in transfected cells; conditions: in words
Experimental: (§1) Transfected mink lung epithelial cell (TMLC) cell line containing the TGFβ responsive PAI-1 promoter driving luciferase expression[29] and the CHO-K1 human and mouse αvβx integrin cell lines were grown under optimized growth conditions to 90% confluency. TMLC cells were trypsinized and plated at 25,000 cells/well in 50 μL in Costar clear bottom white walled plates. In a separate plate, 25 μL of serially diluted antibodies at 4X concentration were added to wells containing 25 μL of either 25,000 cells of human or mouse αvβx cells. After a brief mixing, the 50 μL mixture was transferred to the TMLC cell plates for a total volume of 100 μL and incubated at 37 °C for 16 h. 100 μL of ONE-Glo kit (#PRE6120) was added to each well and read after 3–5 min on the Envision plate reader.

human αvβ6 = human αvβ6 (Homo sapiens, UniProt P06756+P18564); experiment: as above; type: cell-based; set-up: expressed in transfected cells; conditions: in words
Experimental: as §1

human αvβ8 = human αvβ8 (Homo sapiens, UniProt P06756+P26012); experiment: as above; type: cell-based; set-up: expressed in transfected cells; conditions: in words
Experimental: as §1

mouse αvβ1 = mouse αvβ1 (Mus musculus, UniProt P09055+P43406); experiment: as above; type: cell-based; set-up: expressed in transfected cells; conditions: in words
mouse αvβ1, sequence (P43406 31-1044): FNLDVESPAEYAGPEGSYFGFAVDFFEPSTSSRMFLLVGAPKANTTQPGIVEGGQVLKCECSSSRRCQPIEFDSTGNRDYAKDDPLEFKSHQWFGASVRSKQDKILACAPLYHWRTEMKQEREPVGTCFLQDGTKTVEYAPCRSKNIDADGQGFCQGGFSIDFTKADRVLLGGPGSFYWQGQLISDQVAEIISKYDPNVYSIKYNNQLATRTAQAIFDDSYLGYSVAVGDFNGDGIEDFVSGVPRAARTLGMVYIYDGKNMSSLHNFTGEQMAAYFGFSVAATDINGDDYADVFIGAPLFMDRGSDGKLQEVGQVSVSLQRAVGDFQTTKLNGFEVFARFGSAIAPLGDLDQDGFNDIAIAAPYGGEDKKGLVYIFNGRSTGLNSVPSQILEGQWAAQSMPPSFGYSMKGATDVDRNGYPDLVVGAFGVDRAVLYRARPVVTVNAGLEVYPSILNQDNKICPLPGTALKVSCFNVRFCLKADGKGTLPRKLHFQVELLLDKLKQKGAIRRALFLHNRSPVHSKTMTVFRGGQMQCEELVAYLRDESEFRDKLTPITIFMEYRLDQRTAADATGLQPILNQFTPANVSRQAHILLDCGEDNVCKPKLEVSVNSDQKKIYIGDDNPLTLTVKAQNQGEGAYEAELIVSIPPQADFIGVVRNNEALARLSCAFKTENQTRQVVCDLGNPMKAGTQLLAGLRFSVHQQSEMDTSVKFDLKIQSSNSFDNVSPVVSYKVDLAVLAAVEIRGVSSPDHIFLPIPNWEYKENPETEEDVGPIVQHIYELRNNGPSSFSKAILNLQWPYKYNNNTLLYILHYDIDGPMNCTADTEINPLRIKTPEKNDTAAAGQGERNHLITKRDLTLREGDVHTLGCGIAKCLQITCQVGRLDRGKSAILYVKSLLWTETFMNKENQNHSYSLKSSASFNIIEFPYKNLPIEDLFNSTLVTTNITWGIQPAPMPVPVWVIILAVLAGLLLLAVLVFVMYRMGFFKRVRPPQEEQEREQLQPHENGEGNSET
mouse αvβ1, sequence (P09055 21-798): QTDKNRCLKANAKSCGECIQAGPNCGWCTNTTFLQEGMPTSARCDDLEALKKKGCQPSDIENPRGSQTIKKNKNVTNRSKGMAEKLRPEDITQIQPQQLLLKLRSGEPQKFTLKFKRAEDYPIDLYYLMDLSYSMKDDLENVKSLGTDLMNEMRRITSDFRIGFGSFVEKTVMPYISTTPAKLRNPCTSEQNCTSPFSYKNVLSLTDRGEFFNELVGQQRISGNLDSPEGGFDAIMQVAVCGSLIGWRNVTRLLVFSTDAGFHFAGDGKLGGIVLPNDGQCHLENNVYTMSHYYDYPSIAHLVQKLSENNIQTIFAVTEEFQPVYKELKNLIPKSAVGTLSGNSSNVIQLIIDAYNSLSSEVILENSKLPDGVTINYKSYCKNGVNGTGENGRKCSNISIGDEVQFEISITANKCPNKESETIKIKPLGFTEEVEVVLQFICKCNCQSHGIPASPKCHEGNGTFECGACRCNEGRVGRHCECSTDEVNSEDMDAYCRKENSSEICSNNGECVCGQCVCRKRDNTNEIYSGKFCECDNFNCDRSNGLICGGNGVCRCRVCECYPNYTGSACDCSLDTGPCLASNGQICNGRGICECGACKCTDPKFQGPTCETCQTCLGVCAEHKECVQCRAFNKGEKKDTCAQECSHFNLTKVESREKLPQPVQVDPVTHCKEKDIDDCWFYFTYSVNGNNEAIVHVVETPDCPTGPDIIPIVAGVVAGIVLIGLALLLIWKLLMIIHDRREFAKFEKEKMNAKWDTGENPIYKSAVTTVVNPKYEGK
Experimental: as §1

human αvβ1 [3] = target: T1, human αvβ1; experiment: AlphaLISA integrin-ligand binding assay; type: biochemical; set-up: hαV 1 992; hβ1 1 728; made in house; host or cells: Expi293
Experimental: In the AlphaLISA integrin assays, we used a HEPES based buffer (25 mM HEPES pH 7.4, 137 mM NaCl, 1 mM MgCl2, 1 mM MnCl2, 2 mM CaCl2, 2.7 mM KCl, and 0.05% Tween-20). Optimal assay conditions were determined with a titration of the reagents for signal noise ratio (S/N), linear range, etc. For the respective integrins, we used the final concentrations described in Supplemental Table S3. Briefly, the testing antibody (8 μL) was added as a 4x (of Final testing concentration) solution in the HEPES buffer described previously into a 384w AlphaPlate (Perkin Elmer #6005350). Then the integrin and ligand were added sequentially as 8x (4 μL each). Plates were sealed and incubated at room temperature for 2 h. Then 4 × acceptor bead solution (8 μL) was added, and the plates were resealed and incubated at RT for 1 h. Finally, 4 × (8 μL) donor beads solution was added in a darkened room and incubated for 45 min at room temperature. Plates were read on the Envision (Perkin Elmer) in AlphaScreen mode within 3 h of donor bead addition.
Supplemental Table S3. integrin AlphaLIS A assay reagents and conditions Human A l phal i sa Inte gri n A ssays: Fi nal Condi ti ons […]
( batch de pe nde nt) anti body A l phaLi sa A cce ptor havb1 1. 4 nM 1. 0 nMα - Fi brone cti n human Fi brone cti n n/a A cce ptor be ads/ Pe rki n 10. 0 ug/ m 10. 0 ug/ m […]
havb3 3. 0 nM 10. […]
Target sequence in this assay (P06756 31-992): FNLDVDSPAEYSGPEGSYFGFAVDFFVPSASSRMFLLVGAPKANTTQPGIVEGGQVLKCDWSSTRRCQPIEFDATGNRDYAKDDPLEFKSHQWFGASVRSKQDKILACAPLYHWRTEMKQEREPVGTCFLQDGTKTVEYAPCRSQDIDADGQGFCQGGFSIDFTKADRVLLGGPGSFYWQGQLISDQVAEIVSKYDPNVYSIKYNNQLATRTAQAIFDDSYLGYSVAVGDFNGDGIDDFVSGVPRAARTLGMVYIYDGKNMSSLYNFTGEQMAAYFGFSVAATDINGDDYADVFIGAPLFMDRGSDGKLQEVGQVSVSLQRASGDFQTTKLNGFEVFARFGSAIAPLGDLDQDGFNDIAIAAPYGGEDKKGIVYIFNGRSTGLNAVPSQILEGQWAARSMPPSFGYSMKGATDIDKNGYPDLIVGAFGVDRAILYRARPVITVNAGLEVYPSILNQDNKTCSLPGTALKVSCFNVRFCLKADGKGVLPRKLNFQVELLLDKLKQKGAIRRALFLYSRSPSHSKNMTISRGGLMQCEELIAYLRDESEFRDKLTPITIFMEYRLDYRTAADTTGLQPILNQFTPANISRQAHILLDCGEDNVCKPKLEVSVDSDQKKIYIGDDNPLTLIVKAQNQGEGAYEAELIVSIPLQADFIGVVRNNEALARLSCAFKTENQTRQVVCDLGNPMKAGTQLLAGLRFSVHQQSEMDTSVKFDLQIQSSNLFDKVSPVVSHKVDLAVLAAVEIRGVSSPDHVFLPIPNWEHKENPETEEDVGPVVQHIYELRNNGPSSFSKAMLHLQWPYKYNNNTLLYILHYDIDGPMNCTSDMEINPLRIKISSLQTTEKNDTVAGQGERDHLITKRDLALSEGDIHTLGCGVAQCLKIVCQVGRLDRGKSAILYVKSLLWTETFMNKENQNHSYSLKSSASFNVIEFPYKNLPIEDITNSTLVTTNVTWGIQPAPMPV
Target sequence in this assay (P05556 21-728): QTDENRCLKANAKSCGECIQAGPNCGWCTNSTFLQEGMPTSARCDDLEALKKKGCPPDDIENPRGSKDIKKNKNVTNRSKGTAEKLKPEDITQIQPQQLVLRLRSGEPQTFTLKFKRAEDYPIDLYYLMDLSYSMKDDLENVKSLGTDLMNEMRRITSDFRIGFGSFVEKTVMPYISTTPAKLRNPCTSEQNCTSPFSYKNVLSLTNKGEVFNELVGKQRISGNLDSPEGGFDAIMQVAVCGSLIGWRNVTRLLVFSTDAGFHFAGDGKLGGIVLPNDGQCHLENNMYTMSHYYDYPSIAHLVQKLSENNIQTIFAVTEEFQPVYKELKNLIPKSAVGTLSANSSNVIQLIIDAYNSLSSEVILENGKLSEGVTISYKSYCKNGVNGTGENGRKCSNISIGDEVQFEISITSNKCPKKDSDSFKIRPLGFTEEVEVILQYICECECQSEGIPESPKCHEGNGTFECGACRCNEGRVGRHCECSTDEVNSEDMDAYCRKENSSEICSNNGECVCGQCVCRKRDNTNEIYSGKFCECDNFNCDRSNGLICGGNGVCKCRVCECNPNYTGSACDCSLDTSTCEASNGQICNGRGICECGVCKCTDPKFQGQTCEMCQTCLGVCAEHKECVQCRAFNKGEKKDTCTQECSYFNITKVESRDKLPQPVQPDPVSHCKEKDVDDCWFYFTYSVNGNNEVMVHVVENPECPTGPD

Which results are given for COc1ccc(C(CC(=O)O)N2CCN(CCCc3ccc4c(n3)NCCC4)C2=O)cn1 (centres unmarked) [MK-0429]?
Mean plasma total drug concentration [1]: 3701 ng/mL and 3701 ± 902 ng/mL; Effect on cell adhesion, CHOK1 parental cells (CHOK1 parental cells): little inhibitory activity; Inhibition of latent TGFβ activation, human αvβ1 co-culture (human αvβ1 [2]): strong inhibitory effect; Inhibition of latent TGFβ activation, human αvβ6 co-culture (human αvβ6): strong inhibitory effect; Inhibition of latent TGFβ activation, human αvβ8 co-culture (human αvβ8): strong inhibitory effect; Inhibition of latent TGFβ activation, mouse αvβ1 co-culture (mouse αvβ1): strong inhibitory effect; IC50 (human αvβ1 [3]; Fig. 3D, assay optimisation, read-out: IC50 human αvβ1 AlphaLISA): 0.46 nM; IC50 (human αvβ1 [3]; Fig. 4B, read-out: IC50 Human integrin AlphaLISA assays: hαvβ1): 1 nM
